Assay results from patent EP0004358A1, “N-oxacyclylalkyl piperidines, process for their preparation, pharmaceutical compositions containing these compounds” (priority 1978, dated 1979).
Counter-ions that a name gives are not always drawn.

Assays:
biogener Amine = experiment: Uptake inhibition of biogenic amines (statement, no method)
männlichen Albinoratten = experiment: Conditioned shock avoidance (lever pressing) in rats; format: in vivo, Ratte; conditions: for Schockvermeidungsreaktion der Ratte: doses down to 2,5 mg/kg/Tag
From the text: Die Verbindungen der Erfindung zeigen wertvolle pharmakologische, z.B. stimulierende und antidepressive Wirkungen. Diese können in Tierversuchen, vorzugsweise an Säugetieren, wie Ratten oder Affen, als Testobjekte nachgewiesen werden. Die Verbindungen der Erfindung können ihnen enteral, z.B. oral, oder parenteral, z.B. subkutan, intraperitoneal oder intravenös, z.B. in Form von wässerigen Lösungen oder Stärke enthaltenden Suspensionen, verabreicht werden. Die verwendete Dosis kann in einem Bereich von ungefähr zwischen 0,1 und 100 mg/kg/Tag, vorzugsweise ungefähr 1 und 50 mg/kg/Tag, insbesondere ungefähr 5 und 25 mg/kg/Tag liegen. Die genannten stimulierenden und antidepressiven Wirkungen können z.B. an männlichen Albinoratten beobachtet werden. Die Tiere haben freien Zugang zu Futter und Wasser, mit Ausnahme der Versuchsdauer. Die Untersuchung des Tierverhaltens wird in normierten, schallisolierten Konditionierungskammern, welche einen Schalthebel enthalten, durchgeführt. Gemäss dem Test werden die Ratten durch das Bodengitter der Kammer elektrischen Schocks ausgesetzt. Der Hebel ist an eine programmierte Einrichtung, welche die Abgabe von elektrischen Schocks reguliert, angeschlossen. Die Anzahl der Betätigung des Hebels und die Anzahl der erlittenen Schocks werden registriert. Die Ratten werden vorher dazu trainiert, diesem elektrischen Impuls durch Drücken der Taste auszuweichen. Dann wird der Apparat so eingestellt, dass jede Hebelbetätigung den Schockeintritt um 30 Sekunden verschiebt. Vergisst das Tier den Hebel innerhalb dieses Zeitintervalls zu drücken, so werden alle 15 Sekunden kurze elektrische Schocks abgegeben, bis das Tier den Hebel wieder betätigt. Vor jeder Testperiode werden die Ratten, um sich zu erwärmen, 15 Minuten in den Testkammern gehalten. Während dieser Zeit wird die Anzahl der Hebelbetätigungen nicht registriert. Unmittelbar nach dieser Periode werden die Test-Verbindungen entweder in Kochsalzlösung oder in 3Xiger Maisstärke-Suspension in 5%igem wässerigem Polyäthylenglykol-400, welches auf 10 ml einen Tropfen Polyäthylen-20- sorbitanmonooleat enthält, entweder oral oder intraperitoneal vorabreicht. […] Diese erfindungsgemässe Verbindung zeigt einen einzigartigen Wirkungsmechanismus.

anticholinergische = experiment: Anticholinergic action (statement, no method)
antihistaminische = experiment: Antihistaminic action (statement, no method)
[1] = system: präsynaptischerc(-noradrenergischer Blocker); experiment: Presynaptic alpha-noradrenergic blockade (statement, no method); conditions: compared in kind with Mianserin
[2] = system: Totenkopf-Aeffchen (squirrel monkeys); experiment: Conditioned shock avoidance (Skinner cage) in squirrel monkeys; format: in vivo; conditions: oral in 0,9%iger wässeriger Kochsalzlösung, doses down to 2,5 mg/kg/Tag; four-hour session
From the text: In einem anderen Test werden Totenkopf-Aeffchen (squirrel monkeys) durch Training dazugebracht, den Hebel in einem solchen Skinner-Käfig zu drücken, um dem elektrischen Schock, der auf die Füsse durch das Bodengitter verabreicht wird, auszuweichen. Jeder Tastendruck verschiebt den elektrischen Schock um 20 Sekunden. Versäumt der Affe innerhalb von 20 Sekunden die Taste zu drücken, so wird er kurze (0,5 Sekunden) elektrische Schocks alle 20 Sekunden bis zu seinem nächsten Tastendruck erleiden. Unter Kontrollbedingungen drücken die Affen den Hebel mit einer verhältnismässig stetigen Geschwindigkeit, so dass sie selten mehr als 6 Schocks während einer vierstündigen Versuchsperiode erhalten. Man bestimmt die Anzahl der Vermeidungsreaktionen sowie die Anzahl der erhaltenen Schocks. […] Der Wirkstoff wird in niedrigen Dosen bis hinunter zu 2,5 mg/kg/Tag verabreicht. Die Untersuchung zwecks Gewinnung von Kontrollwerten wird unter Verwendung von Kochsalzlösung allein, ein Tag vor der Untersuchung der Wirkstoffe, durchgeführt.

Row | Compound | Aufnahmehemmer biogener Amine (biogener Amine) | Zunahme der Schockvermeidungsreaktion, comparison with Methylphenidat (männlichen Albinoratten; compared with 5 mg/kg/Tag Methylphenidat intraperitoneal) | Schockvermeidungsreaktion der Ratte (männlichen Albinoratten; intraperitoneal) | anticholinergische Wirkung (anticholinergische) | antihistaminische Wirkung (antihistaminische) | präsynaptischerc(-noradrenergischer Blocker) [1] | Anzahl der erlittenen Schocks [2] | Ausmass der Vermeidungsreaktionen [2] | Zunahme der Schockvermeidungsreaktion (männlichen Albinoratten; 5 mg/kg/Tag, intraperitoneal)
1 | O=C1NCCN1C1CCN(CCC2COc3ccccc3O2)CC1 (racemic) [1-[1-[2-(1,4-Benzodioxan-2-yl)-äthyl]-4-piperidyl]-2-imidazolidinon] | kein Aufnahmehemmer biogener Amine | vorteilhaft | erhöht signifikant | weder eine anticholinergische | noch eine antihistaminische Wirkung | kein präsynaptischerc(-noradrenergischer Blocker |  |  | 
2 | O=C1NCCN1C1CCN(CC[C@H]2COc3ccccc3O2)CC1 [1-(S)-Hydrobromid] |  |  | erhöht signifikant |  |  |  | positive Aenderungen | positive Aenderungen | 
3 | COC(=O)C(c1ccccc1)C1CCCCN1 (stereo not shown) [Methylphenidat, reference compound] |  |  |  |  |  |  |  |  | Zunahme der Schockvermeidungsreaktion
